27 compounds from patent publication US20120157452A1, “1H-PYRAZOLO[3,4-B] PYRIDINE COMPOUNDS FOR INHIBITING RAF KINASE” (GENENTECH, INC., priority 2009, published 2012) can be followed below.

The assay concerns the target T1, V600E full-length B-Raf (Homo sapiens, UniProt P15056, V600E).
T1 construct: made in house; host or cells: Sf9 insect cells (baculovirus)
The assay can be described thus: B-Raf IC50 assay: incorporation of radio labeled phosphate from [γ-33P]ATP into FSBA-modified wild-type MEK. Format: biochemical. The text has this: Determining the activity of Raf in the sample is possible by a number of direct and indirect detection methods (US 2004/0082014). Activity of human recombinant B-Raf protein may be assessed in vitro by assay of the incorporation of radio labeled phosphate to recombinant MAP kinase (MEK), a known physiologic substrate of B-Raf, according to US 2004/0127496 and WO 03/022840. The activity/inhibition of V600E full-length B-Raf was estimated by measuring the incorporation of radio labeled phosphate from [γ-^33]ATP into FSBA-modified wild-type MEK (see Biological Example 1).
Activity of human recombinant B-Raf protein may be assessed in vitro by assay of the incorporation of radio labeled phosphate to recombinant MAP kinase (MEK), a known physiologic substrate of B-Raf, according to US 2004/0127496 and WO 03/022840. Catalytically active human recombinant B-Raf protein is obtained by purification from sf9 insect cells infected with a human B-Raf recombinant baculovirus expression vector.
The activity/inhibition of V600E full-length B-Raf was estimated by measuring the incorporation of radio labeled phosphate from [γ-^33]ATP into FSBA-modified wild-type MEK. The 30-μL, assay mixtures contained 25 mM Na Pipes, pH 7.2, 100 mM KCl, 10 mM MgCl2, 5 mM β-glycerophosphate, 100 μM Na Vanadate, 4 μM ATP, 500 nCi [γ-^33P]ATP, 1 μM FSBA-MEK and 20 nM V600E full-length B-Raf. Incubations were carried out at 22° C. in a Costar 3365 plate (Corning). Prior to the assay, the B-Raf and FSBA-MEK were preincubated together in assay buffer at 1.5× (20 μL of 30 nM and 1.5 μM, respectively) for 15 minutes, and the assay was initiated by the addition of 10 μL of […]. Following the 60-minute incubation, the assay mixtures were quenched by the addition of 100 μL of 25% TCA, the plate was mixed on a rotary shaker for 1 minute, and the product was captured on a Perkin-Elmer GF/B filter plate using a Tomtec Mach III Harvester. After sealing the bottom of the plate, 35 μL of Bio-Safe II (Research Products International) scintillation cocktail were added to each well and the plate was top-sealed and counted in a Topcount NXT (Packard).

Where [1] appears, read: 4 μM ATP, 60-minute incubation, representative data of multiple tests.

The structures appear in SMILES notation.

T1 sequence (P15056 whole entry V600E): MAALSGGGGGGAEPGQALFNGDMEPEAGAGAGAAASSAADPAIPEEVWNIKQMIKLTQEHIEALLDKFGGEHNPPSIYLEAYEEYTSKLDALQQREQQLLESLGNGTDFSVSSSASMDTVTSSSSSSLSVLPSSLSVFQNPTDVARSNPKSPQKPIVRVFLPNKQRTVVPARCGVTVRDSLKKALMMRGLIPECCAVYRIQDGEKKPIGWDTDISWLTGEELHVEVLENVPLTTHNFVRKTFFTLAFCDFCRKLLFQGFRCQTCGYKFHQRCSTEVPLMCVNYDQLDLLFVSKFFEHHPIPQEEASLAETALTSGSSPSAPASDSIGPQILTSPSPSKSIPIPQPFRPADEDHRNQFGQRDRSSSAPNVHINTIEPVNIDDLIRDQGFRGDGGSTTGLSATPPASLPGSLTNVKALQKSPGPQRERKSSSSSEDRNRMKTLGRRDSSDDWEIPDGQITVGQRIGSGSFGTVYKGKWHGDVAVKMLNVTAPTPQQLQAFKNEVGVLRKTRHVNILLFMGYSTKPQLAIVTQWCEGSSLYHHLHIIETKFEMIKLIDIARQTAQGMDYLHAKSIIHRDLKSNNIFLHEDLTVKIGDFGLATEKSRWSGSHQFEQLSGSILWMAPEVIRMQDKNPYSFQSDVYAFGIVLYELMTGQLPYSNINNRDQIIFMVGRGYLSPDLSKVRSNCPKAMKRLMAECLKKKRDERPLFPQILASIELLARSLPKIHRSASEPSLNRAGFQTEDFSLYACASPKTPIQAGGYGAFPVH

For orientation: IC50 means the concentration that inhibits the measured activity by half. Higher therefore signals lower potency. Take `COc1n[nH]c2ncc(NC(=O)c3c(Cl)ccc(OCc4ccc(F)cc4)c3F)cc12` [Example 29, 6-chloro-2-fluoro-3-(4-fluorobenzyloxy)-N-(3-methoxy-1H-pyrazolo[3,4-b]pyridin-5-yl)benzamide]: the IC50 is 0.65 nM under setting [1] and below 100 nM (bound stated).

Regarding `COc1n[nH]c2ncc(NC(=O)c3c(Cl)ccc(OCc4ccc(C)cc4)c3F)cc12` [Example 31, 6-chloro-2-fluoro-N-(3-methoxy-1H-pyrazolo[3,4-b]pyridin-5-yl)-3-(4-methyl-benzyloxy)benzamide], half-maximal inhibition under setting [1] (IC50) required 0.56 nM and the IC50 (bound stated) was below 100 nM.

`COc1n[nH]c2ncc(NC(=O)c3c(F)cc(F)c(OCc4ccccc4)c3F)cc12` [Example 32, 3-(benzyloxy)-2,4,6-trifluoro-N-(3-methoxy-1H-pyrazolo[3,4-b]pyridin-5-yl)benzamide]: the IC50 by setting is: under setting [1], 34.9 nM; (bound stated) below 100 nM.

Consider `COc1n[nH]c2ncc(NC(=O)c3c(F)ccc(OCc4ccccc4)c3Cl)cc12` [Example 33, 3-(benzyloxy)-2-chloro-6-fluoro-N-(3-methoxy-1H-pyrazolo[3,4-b]pyridin-5-yl)benzamide], for which the IC50 runs as follows: under setting [1], 17.2 nM; (bound stated) below 100 nM.

For `Cc1n[nH]c2ncc(NC(=O)c3c(Cl)ccc(OCc4ccccc4)c3F)cc12` [Example 34, 3-(benzyloxy)-6-chloro-2-fluoro-N-(3-methyl-1H-pyrazolo[3,4-b]pyridin-5-yl)benzamide], the IC50 was 4.83 nM under setting [1] and below 100 nM (bound stated).

`O=C(Nc1cnc2[nH]nc(C3CC3)c2c1)c1c(Cl)ccc(OCc2ccccc2)c1F` [Example 35, 3-(benzyloxy)-6-chloro-N-(3-cyclopropyl-1H-pyrazolo[3,4-b]pyridin-5-yl)-2-fluorobenzamide]: the IC50 was 2.1 nM under setting [1] and below 100 nM (bound stated).

For `COc1n[nH]c2ncc(NC(=O)c3c(Cl)ccc(OCc4cccnc4)c3F)cc12` [Example 36, 6-chloro-2-fluoro-N-(3-methoxy-1H-pyrazolo[3,4-b]pyridin-5-yl)-3-(pyridin-3-ylmethoxy)benzamide], the IC50 is, setting by setting: under setting [1], 37.5 nM; (bound stated) below 100 nM.

In the case of `COc1n[nH]c2ncc(NC(=O)c3c(Cl)ccc(OCc4cscn4)c3F)cc12` [Example 37, 6-chloro-2-fluoro-N-(3-methoxy-1H-pyrazolo[3,4-b]pyridin-5-yl)-3-(thiazol-4-ylmethoxy)benzamide], the IC50 runs as follows: under setting [1], 3.8 nM; (bound stated) below 100 nM.

`COc1n[nH]c2ncc(NC(=O)c3c(Cl)ccc(OCc4cccc(C)n4)c3F)cc12` [Example 38, 6-chloro-2-fluoro-N-(3-methoxy-1H-pyrazolo[3,4-b]pyridin-5-yl)-3-((6-methylpyridin-2-yl)methoxy)benzamide]: the IC50 by setting is: under setting [1], 15.1 nM; (bound stated) below 100 nM.

With `COc1n[nH]c2ncc(NC(=O)c3c(Cl)ccc(OCc4ccncc4)c3F)cc12` [Example 39, 6-chloro-2-fluoro-N-(3-methoxy-1H-pyrazolo[3,4-b]pyridin-5-yl)-3-(pyridin-4-ylmethoxy)benzamide], the IC50 reads like this: under setting [1], 64.2 nM; (bound stated) below 100 nM.

As for `COc1n[nH]c2ncc(NC(=O)c3c(Cl)ccc(OCc4ccncn4)c3F)cc12` [Example 40, 6-chloro-2-fluoro-N-(3-methoxy-1H-pyrazolo[3,4-b]pyridin-5-yl)-3-(pyrimidin-4-ylmethoxy)benzamide], the IC50 was 27 nM under setting [1] and below 100 nM (bound stated).

Take `COc1n[nH]c2ncc(NC(=O)c3c(Cl)ccc(OCc4ncccn4)c3F)cc12` [Example 41, 6-chloro-2-fluoro-N-(3-methoxy-1H-pyrazolo[3,4-b]pyridin-5-yl)-3-(pyrimidin-2-ylmethoxy)benzamide]: the IC50 is, setting by setting: under setting [1], 152 nM; (bound stated) below 500 nM.

Regarding `COc1n[nH]c2ncc(NC(=O)c3c(Cl)ccc(OCc4ccc(C(F)(F)F)nc4)c3F)cc12` [Example 43, 6-chloro-2-fluoro-N-(3-methoxy-1H-pyrazolo[3,4-b]pyridin-5-yl)-3-((6-(trifluoromethyl)pyridin-3-yl)methoxy)benzamide], the IC50 by setting is: under setting [1], 2.63 nM; (bound stated) below 100 nM.

For `COc1n[nH]c2ncc(NC(=O)c3c(Cl)ccc(OCc4ccc(C)cn4)c3F)cc12` [Example 44, 6-chloro-2-fluoro-N-(3-methoxy-1H-pyrazolo[3,4-b]pyridin-5-yl)-3-((5-methylpyridin-2-yl)methoxy)benzamide], the IC50 was 0.64 nM under setting [1] and below 100 nM (bound stated).

In the case of `COc1n[nH]c2ncc(NC(=O)c3c(Cl)ccc(OCc4ccc(Cl)cn4)c3F)cc12` [Example 45, 6-chloro-3-((5-chloropyridin-2-yl)methoxy)-2-fluoro-N-(3-methoxy-1H-pyrazolo[3,4-b]pyridin-5-yl)benzamide], the IC50 is 0.53 nM under setting [1] and below 100 nM (bound stated).

As for `COc1n[nH]c2ncc(NC(=O)c3c(Cl)ccc(OCc4ccc(C)nc4)c3F)cc12` [Example 46, 6-chloro-2-fluoro-N-(3-methoxy-1H-pyrazolo[3,4-b]pyridin-5-yl)-3-((6-methylpyridin-3-yl)methoxy)benzamide], the IC50 by setting is: under setting [1], 6.09 nM; (bound stated) below 100 nM.

For the compound `COc1n[nH]c2ncc(NC(=O)c3c(Cl)ccc(OCc4ccc(I)cc4)c3F)cc12` [Example 47, 6-chloro-2-fluoro-3-(4-iodobenzyloxy)-N-(3-methoxy-1H-pyrazolo[3,4-b]pyridin-5-yl)benzamide], the IC50 is 4.14 nM under setting [1] and below 100 nM (bound stated).

Take `COc1n[nH]c2ncc(NC(=O)c3c(Cl)ccc(OCc4ccc(Br)cc4)c3F)cc12` [Example 48, 3-(4-bromobenzyloxy)-6-chloro-2-fluoro-N-(3-methoxy-1H-pyrazolo[3,4-b]pyridin-5-yl)benzamide]: the IC50 by setting is: under setting [1], 1.68 nM; (bound stated) below 100 nM.

Take `COc1n[nH]c2ncc(NC(=O)c3c(Cl)ccc(OCc4ccc(S(C)(=O)=O)cc4)c3F)cc12` [Example 49]: the IC50 was 3.91 nM under setting [1] and below 100 nM (bound stated).

In the case of `COc1n[nH]c2ncc(NC(=O)c3c(Cl)ccc(OCc4cccc(Cl)c4)c3F)cc12` [Example 50, 6-chloro-3-(3-chlorobenzyloxy)-2-fluoro-N-(3-methoxy-1H-pyrazolo[3,4-b]pyridin-5-yl)benzamide], the IC50 was 1.22 nM under setting [1] and below 100 nM (bound stated).

Turning to `COc1n[nH]c2ncc(NC(=O)c3c(Cl)ccc(OCc4ccc(C#N)cc4)c3F)cc12` [Example 51, 6-chloro-3-(4-cyanobenzyloxy)-2-fluoro-N-(3-methoxy-1H-pyrazolo[3,4-b]pyridin-5-yl)benzamide], the IC50 by setting is: under setting [1], 2.01 nM; (bound stated) below 100 nM.

As to `COc1n[nH]c2ncc(NC(=O)c3c(Cl)ccc(OCc4scnc4C)c3F)cc12` [Example 52, 6-chloro-2-fluoro-N-(3-methoxy-1H-pyrazolo[3,4-b]pyridin-5-yl)-3-((4-methylthiazol-5-yl)methoxy)benzamide], the IC50 was 70.4 nM under setting [1] and below 100 nM (bound stated).

Turning to `COc1n[nH]c2ncc(NC(=O)c3c(Cl)ccc(OCc4nccs4)c3F)cc12` [Example 53, 6-chloro-2-fluoro-N-(3-methoxy-1H-pyrazolo[3,4-b]pyridin-5-yl)-3-(thiazol-2-ylmethoxy)benzamide], the IC50 reads like this: under setting [1], 13.2 nM; (bound stated) below 100 nM.

In the case of `COc1n[nH]c2ncc(NC(=O)c3c(Cl)ccc(OCc4ccco4)c3F)cc12` [Example 54, 6-chloro-2-fluoro-3-(furan-2-ylmethoxy)-N-(3-methoxy-1H-pyrazolo[3,4-b]pyridin-5-yl)benzamide], the IC50 by setting is: under setting [1], 3.36 nM; (bound stated) below 100 nM.

Turning to `CCc1ccc(COc2ccc(Cl)c(C(=O)Nc3cnc4[nH]nc(OC)c4c3)c2F)cc1` [Example 55, 6-chloro-3-(4-ethylbenzyloxy)-2-fluoro-N-(3-methoxy-1H-pyrazolo[3,4-b]pyridin-5-yl)benzamide], the IC50 is 1.47 nM under setting [1] and below 100 nM (bound stated).

The compound `COc1ccc(COc2ccc(Cl)c(C(=O)Nc3cnc4[nH]nc(OC)c4c3)c2F)cc1` [Example 56, 6-chloro-2-fluoro-N-(3-methoxy-1H-pyrazolo[3,4-b]pyridin-5-yl)-3-(4-methoxy-benzyloxy)benzamide] registered an IC50 under setting [1] of 1.31 nM and an IC50 (bound stated) below 100 nM.

For the compound `COc1n[nH]c2ncc(NC(=O)c3c(Cl)ccc(OCc4cnccn4)c3F)cc12` [Example 57, 6-chloro-2-fluoro-N-(3-methoxy-1H-pyrazolo[3,4-b]pyridin-5-yl)-3-(pyrazin-2-ylmethoxy)benzamide], the half-maximal inhibitory concentration (IC50) is, setting by setting: under setting [1], 26 nM; (bound stated) below 100 nM.
